What all share (assay type): biochemical
Holding throughout (conditions): 15 nM tritium labelled cAMP, 1 h at room temperature, SPA beads

One experiment addresses PDE1C (Homo sapiens, UniProt Q14123). Nature of the experiment: PDE1 Inhibition Assay, PDE1C (SPA). How it is done: (§1) PDE1A, PDE1B and PDE1C assays were performed as follows: the assays was performed in 60 μL samples containing a fixed amount of the PDE1 enzym1 (sufficient to convert 20-25% of the cyclic nucleotide substrate), a buffer (50 mM HEPES pH 7.6; 10 mM MgCl2; 0.02% Tween20), 0.1 mg/ml BSA, 15 nM tritium labelled cAMP and varying amounts of inhibitors. Reactions were initiated by addition of the cyclic nucleotide substrate, and reactions were allowed to proceed for 1 h at room temperature before being terminated through mixing with 20 μL (0.2 mg) yttrium silicate SPA beads (PerkinElmer). The beads were allowed to settle for 1 h in the dark before the plates were counted in a Wallac 1450 Microbeta counter. The measured signals were converted to activity relative to an uninhibited control (100%) and IC50 values were calculated using XIFit (model 205, IDBS).

The target in another experiment is PDE1A (Homo sapiens, UniProt P54750). Nature of the experiment: PDE1 Inhibition Assay, PDE1A (SPA). How it is done:
as §1

For a further experiment, the target named is PDE1B (Homo sapiens, UniProt Q01064). Nature of the experiment: PDE1 Inhibition Assay, PDE1B (SPA). The protocol:
as §1

Sequence of PDE1A (P54750 whole entry): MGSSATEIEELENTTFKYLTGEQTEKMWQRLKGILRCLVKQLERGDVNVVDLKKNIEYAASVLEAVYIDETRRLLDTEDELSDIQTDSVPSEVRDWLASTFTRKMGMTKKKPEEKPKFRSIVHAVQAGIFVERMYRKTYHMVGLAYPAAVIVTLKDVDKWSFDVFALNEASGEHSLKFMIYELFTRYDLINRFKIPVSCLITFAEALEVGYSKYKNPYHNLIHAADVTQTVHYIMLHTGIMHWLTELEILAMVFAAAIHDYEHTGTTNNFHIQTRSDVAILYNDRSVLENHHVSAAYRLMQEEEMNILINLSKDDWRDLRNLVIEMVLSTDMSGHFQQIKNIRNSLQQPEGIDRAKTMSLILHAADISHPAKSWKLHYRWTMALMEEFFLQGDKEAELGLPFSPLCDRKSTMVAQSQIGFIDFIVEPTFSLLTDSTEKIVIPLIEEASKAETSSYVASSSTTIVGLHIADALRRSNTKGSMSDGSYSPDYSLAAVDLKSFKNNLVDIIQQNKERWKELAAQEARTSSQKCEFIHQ
Sequence of PDE1B (Q01064 whole entry): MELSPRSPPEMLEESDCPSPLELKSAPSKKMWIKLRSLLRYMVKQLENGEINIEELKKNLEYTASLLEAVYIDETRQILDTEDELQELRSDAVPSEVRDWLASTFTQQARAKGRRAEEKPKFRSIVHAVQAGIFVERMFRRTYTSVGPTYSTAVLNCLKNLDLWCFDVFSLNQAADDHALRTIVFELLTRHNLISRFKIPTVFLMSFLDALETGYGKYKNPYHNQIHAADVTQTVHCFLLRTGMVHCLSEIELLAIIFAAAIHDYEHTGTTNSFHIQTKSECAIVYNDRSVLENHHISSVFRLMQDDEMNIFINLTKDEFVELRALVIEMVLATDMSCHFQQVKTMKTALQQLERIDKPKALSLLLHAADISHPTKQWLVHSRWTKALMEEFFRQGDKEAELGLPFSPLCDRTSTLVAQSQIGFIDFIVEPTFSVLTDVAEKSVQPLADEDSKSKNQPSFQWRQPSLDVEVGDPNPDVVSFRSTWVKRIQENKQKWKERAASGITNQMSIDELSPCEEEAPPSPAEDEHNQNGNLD
Sequence of PDE1C (Q14123 whole entry): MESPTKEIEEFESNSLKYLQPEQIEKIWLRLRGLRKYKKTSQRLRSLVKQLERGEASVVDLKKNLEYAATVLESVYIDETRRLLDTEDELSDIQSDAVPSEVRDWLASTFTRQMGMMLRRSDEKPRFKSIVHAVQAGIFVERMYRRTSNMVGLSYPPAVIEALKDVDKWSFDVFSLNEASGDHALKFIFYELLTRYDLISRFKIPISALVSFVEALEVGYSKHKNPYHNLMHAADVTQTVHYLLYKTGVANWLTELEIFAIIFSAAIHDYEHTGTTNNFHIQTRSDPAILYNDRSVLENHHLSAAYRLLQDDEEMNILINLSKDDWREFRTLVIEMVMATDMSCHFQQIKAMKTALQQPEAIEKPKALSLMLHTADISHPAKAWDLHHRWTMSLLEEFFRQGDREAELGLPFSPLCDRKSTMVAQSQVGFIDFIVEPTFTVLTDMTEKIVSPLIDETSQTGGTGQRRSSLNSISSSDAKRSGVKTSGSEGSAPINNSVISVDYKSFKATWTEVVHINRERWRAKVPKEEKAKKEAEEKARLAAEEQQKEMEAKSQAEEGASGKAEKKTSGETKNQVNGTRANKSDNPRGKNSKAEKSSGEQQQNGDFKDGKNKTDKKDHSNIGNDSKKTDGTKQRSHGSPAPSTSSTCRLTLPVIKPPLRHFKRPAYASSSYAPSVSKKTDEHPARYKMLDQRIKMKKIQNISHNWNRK

In the case of `COc1ccc2c(N(CC3CC3)[C@H]3CCOC3)ncnc2c1OC` [Compound 11, (S)-N-(cyclopropylmethyl)-7,8-dimethoxy-N-(tetrahydrofuran-3-yl)quinazolin-4-amine], the IC50 against PDE1C amounted to 1600 nM; against PDE1A it was 850 nM; on PDE1B, 420 nM.

`CCN(c1ncnc2c(OC)c(OC)ccc12)[C@@H]1CCOC1` [Compound 13, (R)—N-ethyl-7,8-dimethoxy-N-(tetrahydrofuran-3-yl)quinazolin-4-amine]: the IC50 against PDE1C came out at 1500 nM; at PDE1A it was 1200 nM; against PDE1B, 600 nM.

`CCCN(c1ncnc2c(OC)c(OC)ccc12)[C@@H]1CCOC1` [Compound 14, (R)-7,8-dimethoxy-N-propyl-N-(tetrahydrofuran-3-yl)quinazolin-4-amine]: the IC50 at PDE1C is 360 nM; at PDE1A, 270 nM; on PDE1B, 180 nM.

Turning to `COc1ccc2c(N(CC3CC3)[C@@H]3CCOC3)ncnc2c1OC` [Compound 15, (R)—N-(cyclopropylmethyl)-7,8-dimethoxy-N-(tetrahydrofuran-3-yl)quinazolin-4-amine], the IC50 against PDE1C was determined as 2100 nM; at PDE1A it was 2500 nM; against PDE1B, 820 nM.

Turning to `COc1ccc2c(N(Cc3ccccc3)[C@@H]3CCOC3)ncnc2c1OC` [Compound 16, (R)—N-benzyl-7,8-dimethoxy-N-(tetrahydrofuran-3-yl)quinazolin-4-amine], the IC50 against PDE1C came out at 1600 nM; against PDE1A, 1200 nM; on PDE1B, 410 nM.
